The source made the active and inactive calls. The calls are words filed in the database; no cut-off is given here.
How the values were obtained:
Rattus norvegicus [1] = experiment: Anti-diabetic activity in fructose-treated male Wistar rat assessed as increase in LDL level at 10 mg/kg, po administered for 15 days (reference value: 40.32 +/-1.08 mg/dL); assay type: functional; settings: time 15 day
Rattus norvegicus [2] = experiment: Anti-diabetic activity in fructose-treated male Wistar rat assessed as increase in HDL level at 10 mg/kg, po administered for 15 days (reference value: 25.35 +/-2.03 mg/dL); assay type: functional; settings: time 15 day
Rattus norvegicus [3] = experiment: Anti-diabetic activity in fructose-treated male Wistar rat assessed as decrease in triglycerides level at 10 mg/kg, po administered for 15 days (reference value: 140.03 +/-3.55 mg/dL); assay type: functional; settings: time 15 day
Rattus norvegicus [4] = experiment: Anti-diabetic activity in fructose-treated male Wistar rat assessed as decrease in SGOT level at 10 mg/kg, po administered for 15 days (reference value: […]); assay type: functional; settings: time 15 day
[5] = AUC (0 to t) in male Wistar rat at 10 mg/kg, po measured upto 24 hrs; assay type: ADME, organism-based; settings: in vivo
Rattus norvegicus [6] = experiment: Anti-diabetic activity in fructose-treated male Wistar rat assessed as increase in glycogen content in skeletal muscle at 10 mg/kg, po administered for 15 days; assay type: functional, organism-based; settings: time 15.0 day
Rattus norvegicus [7] = experiment: Anti-diabetic activity in fructose-treated male Wistar rat assessed as decrease in insulin level at 10 mg/kg, po administered for 15 days by insulin tolerance test; assay type: functional, organism-based; settings: time 15.0 day
Rattus norvegicus [8] = experiment: Anti-diabetic activity in fructose-treated male Wistar rat assessed as increase in total cholesterol level at 10 mg/kg, po administered for 15 days (reference value: 93.68 +/-1.68 mg/dL); assay type: functional; settings: time 15 day
[9] = Half life in male Wistar rat at 10 mg/kg, po measured upto 24 hrs; assay type: ADME, organism-based; settings: in vivo
Rattus norvegicus [10] = experiment: Anti-diabetic activity in fructose-treated male Wistar rat assessed as increase in GSH level in liver at 10 mg/kg, po administered for 15 days (reference value: 39.98 +/-0.86 nM/mg ); assay type: functional; settings: time 15 day
[11] = Cmax in male Wistar rat at 10 mg/kg, po measured upto 24 hrs; assay type: ADME, organism-based; settings: in vivo
Rattus norvegicus [12] = experiment: Anti-diabetic activity in fructose-treated male Wistar rat assessed as increase in SOD level in liver at 10 mg/kg, po administered for 15 days (reference value: 13.25 +/-1.35 U/ml); assay type: functional; settings: time 15 day
Rattus norvegicus [13] = experiment: Anti-diabetic activity in fructose-treated male Wistar rat assessed as decrease in HOMO-IR level at 10 mg/kg, po administered for 15 days; assay type: functional, organism-based; settings: time 15.0 day
Rattus norvegicus [14] = experiment: Anti-diabetic activity in fructose-treated male Wistar rat assessed as change in HOMO-IR level at 10 mg/kg, po administered for 15 days; assay type: functional, organism-based; settings: time 15.0 day
[15] = Retention time of the compound by HPLC analysis; assay type: physicochemical
Rattus norvegicus [16] = experiment: Anti-diabetic activity in fructose-treated male Wistar rat assessed as decrease in VLDL level at 10 mg/kg, po administered for 15 days (reference value: 28 +/-0.28 mg/dL); assay type: functional; settings: time 15 day
[17] = Drug recovery in rat plasma at 100 mg/kg, po by HPLC analysis; assay type: ADME, organism-based; settings: in vivo
[18] = AUC (0 to infinity) in male Wistar rat at 10 mg/kg, po measured upto 24 hrs; assay type: ADME, organism-based; settings: in vivo
Rattus norvegicus [19] = experiment: Anti-diabetic activity in fructose-treated male Wistar rat assessed as decrease in fasting blood glucose level at 10 mg/kg, po administered for 15 days; assay type: functional, organism-based; settings: time 15.0 day
[20] = Tmax in male Wistar rat at 10 mg/kg, po measured upto 24 hrs; assay type: ADME, organism-based; settings: in vivo
[21] = Acute toxicity in male Wistar rat assessed as body weight gain at 10 mg/kg, po administered for 15 days; assay type: organism-based; settings: in vivo, 360 h, time 15 day
Rattus norvegicus [22] = experiment: Anti-diabetic activity in Wistar rat Diaphragm assessed as […] at 10 mg/kg, po administered for 15 days; assay type: functional, organism-based; settings: time 15.0 day
Rattus norvegicus [23] = experiment: Anti-diabetic activity in fructose-treated male Wistar rat assessed as decrease in MDA level in liver at 10 mg/kg, po administered for 15 days (reference value: 294.65 +/-11.78 nM/mg ); assay type: functional; settings: time 15 day
Rattus norvegicus [24] = experiment: Anti-diabetic activity in fructose-treated male Wistar rat assessed as increase in CAT level in liver at 10 mg/kg, po administered for 15 days (reference value: 27.65 +/-1.02 U/min); assay type: functional; settings: time 15 day
L6 = experiment: Induction of glucose uptake in rat L6 cells incubated for 24 hrs by GOD-POD technique; assay type: functional; set-up: concentration or dose not given beside the values
Rattus norvegicus [25] = experiment: Anti-diabetic activity in fructose-treated male Wistar rat assessed as decrease in SGPT level at 10 mg/kg, po administered for 15 days (reference value: […]); assay type: functional; settings: time 15 day
[26] = Drug recovery in rat plasma at 150 mg/kg, po by HPLC analysis; assay type: ADME, organism-based; settings: in vivo
Rattus norvegicus [27] = experiment: Anti-diabetic activity in fructose-treated male Wistar rat assessed as increase in glycogen content in liver at 10 mg/kg, po administered for 15 days; assay type: functional, organism-based; settings: time 15.0 day
[28] = Drug recovery in rat plasma at 50 mg/kg, po by HPLC analysis; assay type: ADME, organism-based; settings: in vivo

`CCc1ccc(CCOc2ccc(CC3SC(=O)NC3=O)cc2)nc1` (centres undefined) [PIOGLITAZONE] showed an Activity (Rattus norvegicus [1]) of 49.35 mg/dL, an Activity (Rattus norvegicus [2]) of 60.72 mg/dL and an Activity (Rattus norvegicus [3]) of 63.57 mg/dL. The Activity (Rattus norvegicus [4]) was 32.45 U/L, the AUC(0-t) at 24 h [5] was 41500 ng·h/mL and the Activity (Rattus norvegicus [6]) was “Active”. For the same molecule, the Activity (Rattus norvegicus [7]) was “Active”, the Activity (Rattus norvegicus [8]) was 122.79 mg/dL and the half-life [9] was 4.92 h. The Activity (Rattus norvegicus [10]) was 77.65 nM/mg, the Cmax [11] was 3130 ng/mL and the Activity (Rattus norvegicus [12]) was 27.65 U/ml. The Activity (Rattus norvegicus [13]) was “inactive”, the Activity (Rattus norvegicus [14]) was “Active” and the Retention_time [15] was 2.4 min. The Activity (Rattus norvegicus [16]) was 12.7 mg/dL, the Drug recovery [17] was 97.4% and the AUC(0-inf) [18] was 43600 ng·h/mL. For the same molecule, the Activity (Rattus norvegicus [19]) was “Active”, the Tmax [20] was 2.69 h and the Activity [21] was “Non-toxic”. The Activity (Rattus norvegicus [22]) was “Active”, the Activity (Rattus norvegicus [23]) was 178.35 nM/mg and the Activity (Rattus norvegicus [24]) was 55.63 U/min. The Activity (L6) was 82.36%, the Activity (Rattus norvegicus [25]) was 29.73 U/L and the Drug recovery [26] was 98%. For the same molecule, the Activity (Rattus norvegicus [27]) was “Active” and the Drug recovery [28] was 97.1%.

Source: ChEMBL document CHEMBL6074653, “Reversal of insulin resistance to combat type 2 diabetes mellitus by newer thiazolidinedione's in fructose induced insulin resistant rats” (Eur J Med Chem, 2024)
